Measurements as given in patent US9199028B2, “Use of entrained neutrophils to treat metastatic and micrometastatic disease in at risk patients” (MEMORIAL SLOAN-KETTERING CANCER CENTER, priority 2010, dated 2015).
Entries after “also recorded” stand apart in the source; their conditions may differ.

Columns and labels:
[1] = tested on: 4T1 cells; test: In vitro killing assay: TENs co-cultured with 4T1 cells in the presence of inhibitors or TGF-β; format: cell-based, mouse; conditions: for neutrophil (TEN) mediated tumour-cell killing in the presence of inhibitor: TENs + 4T1 cells overnight, Apocynin 100 μM, Catalase 1,000 u/ml, Superoxide Dismutase 1,000 u/ml, Taurine 50 mM; for TEN mediated in vitro killing of 4T1 cells in the presence of TGF-β: picomolar concentrations (up to 200 pMolar)
Description: (§1) Antibodies used for immunohistochemistry—MMP9, F4/80 and CCR2 (all from AbCam), Myeloperoxidase (Dako), Ly-6G and Cd11b (both from BD), and Cleaved Caspase 3 (Cell signalling). Antibodies used for western blotting—Actin (Sigma), CCL2 (AbCam) and CCL5 (R&D) p-SMAD2 (cell signalling). Antibodies used for FACS analysis FITC-Ly-6G, FITC-Cd11b, FITC-F4/80, FITC-Cd34 and FITC-c-Kit (all from BD) and VEGFR1-AP (R&D). Neutrophil Depletion Neutrophil depletion was achieved using daily IP injections of 12.5 μg Rat anti-Gr-1 antibody (BD) or Rat anti-Ly-6G antibody (BD) starting on day 3 post tumour engraftment. Starting on day 14, neutrophil depleting antibodies were administered twice daily. Control mice were injected with […] Rat isotype control (BD). Neutrophil depletion was monitored by manual blood differentials and FACS analysis. Flow Cytometry Peripheral blood was collected into EDTA-coated tubes, washed and resuspended in FACS buffer solution (PBS, 2% heat-inactivated FCS, 5 mM EDTA, and 0.02% sodium azide). The samples were blocked with […] and then incubated with fluorophore-conjugated antibodies. Erythrocytes were then lysed with FACS lysing solution (BD Biosciences) and the cell suspensions were analyzed on a FACSCalibur (BD Biosciences). Colony Formation Assay Female nude mice were orthotopically injected with 5×10^6 puromicin resistant 4T1 cells. On days 7 and 14 post tumour engraftment the mice were sacrificed and perfused with PBS. The lungs and livers were removed, washed with PBS and dissociated with Collagenase A (Roche). The single cell suspension was then plated onto puromicin containing media and selected for 14 day. Colonies were stained with Methylene-Blue and counted manually. Mouse Neutrophil Purification Whole blood was collected by cardiac puncture using heparinized (Sigma) syringe. The blood was diluted with 5 volumes of PBS containing 0.5% BSA and subjected to a discontinuous Histopaque (Sigma) gradient (1.077 and 1.119). Neutrophils were collected from the 1.077-1.119 interface, lymphocytes and monocytes collected from the plasma-1.077 interface. RBCs were eliminated by hypotonic lysis. The cells were washed twice with PBS-BSA and re-suspended in OptiMEM (Invitrogen) 0.5% FBS in a final concentration of 2×10^6 cells/ml. Neutrophil purity and viability were determined visually and were consistently >98%. Human Neutrophil Purification As part of a Memorial Sloan-Kettering Cancer Center institutionally approved protocol, blood samples (˜10 cc) were collected from healthy volunteers or from patients who were already having blood drawn for pre-surgical testing. Patients were consented accordingly as part of the approved protocol. […] Patients had either mastectomies or lumpectomies planned and had blood drawn prior to definitive surgical removal of their primary tumor or chemotherapy. Blood samples were transferred to the lab for analysis no more than 1 hour post-blood draw. Heparinzed blood (20 U/ml final) was mixed with an equal volume of Dextran 500 (3% in saline) and incubated 30 minutes at room temperature. The leukocyte-rich supernatant was layered on top of histopaque 1077 (Sigma) and centrifuged. Neutrophils, collected in the pellet fraction, were resuspended in 10 ml 0.2% NaCl for 30 seconds to remove contaminating erythrocytes. Isotonicity was restored by the addition of 10 ml 1.6% NaCl. Neutrophils were than washed three times in Hanks's balanced salt solution and resuspended in RPMI+FCS2%. In vitro Killing Assay Luciferase labelled cells (5,000/well) were plated on a 96-well, flat bottom white polystyrene tissue culture plate in OptiMEM 0.5% FBS (mouse neutrophils) or RPMI 2% FBS (human neutrophils). 4 hours later, purified neutrophils (100,000/well for mouse neutrophils and 5000 for human neutrophils) were added to the plated tumour cells and co-cultured overnight. […]

[2] = tested on: 4T1 cells; test: In vitro killing assay: naïve mouse neutrophils co-cultured with luciferase labelled 4T1 cells in the presence of chemokines; format: cell-based; conditions: naïve mouse neutrophils co-cultured with 4T1 cells, chemokine 20 ng/ml, overnight
Description: as §1

[3] = tested on: MDA-MB-231 cells; test: In vitro killing assay: human neutrophils co-cultured with luciferase labelled MDA-MB-231 cells; format: cell-based; conditions: naïve human neutrophils:tumor cells 1:1, chemokine 100 ng/ml (rhG-CSF 20 ng/ml), overnight
Description: Luciferase is under a constitutive promoter so cell death results in a decrease in luciferase activity because there is no transcription/translation of the lucierferase gene. The assay itself requires lysing of the cell to release the luciferase to mix with the luciferin and measure the luminescence. But it isn't that they dying cell releases luciferase. More signal means more luciferase which means more live cells. […]. […] Nave human neutrophils were co-cultured with MDA-MB-231 cells. […] Cells were seeded at a ratio of human neutrophils:human tumor cells=1:1.
as §1, with “NaCl.” for “NaCl. Neutrophils were than washed three times in Hanks's balanced salt solution and resuspended in RPMI+FCS2%. In vitro Killing Assay Luciferase labelled cells (5,000/well) were plated on a 96-well, flat bottom white polystyrene tissue culture plate in OptiMEM 0.5% FBS (mouse neutrophils) or RPMI 2% FBS (human neutrophils). 4 hours later, purified neutrophils (100,000/well for mouse neutrophils and 5000 for human neutrophils) were added to the plated tumour cells and co-cultured overnight.”

[4] = tested on: 4T1 cells; test: In vivo stimulation of neutrophils with chemokines, purified neutrophils co-cultured with 4T1 cells; format: cell-based, mouse; conditions: healthy mice treated in vivo with G-CSF alone or G-CSF plus chemokine
Protocol: A. To test which chemokines may participate in the stimulation of neutrophils, neutrophils purified from healthy mice were co-culture with luciferase labeled 4T1 cells in the presence (20 ng/ml of chemokine) or absence of certain chemokines for an overnight incubation. […] B. To test which chemokines are sufficient for in vivo stimulation of neutrophils healthy mice were treated with G-CSF (to boost neutrophil numbers) and either CCL2, CCL5 or CXCL1. Control mice were treated with G-CSF alone. Neutrophils were purified from these mice and co-cultured with Luciferase-labeled 4T1 cells. […] Conclusion—CCL2 and to a lesser degree CCL5 can stimulate tumor cell killing both in vitro and in vivo.

## NCCS(=O)(=O)O [Taurine]
[1]
  neutrophil (TEN) mediated tumour-cell killing in the presence of inhibitor: does not inhibit tumour-cell killing
[1]; listed as taurine
  neutrophil (TEN) mediated tumour-cell killing in the presence of inhibitor: did not reduce tumour-cell killing

## CCL3: CC chemokine
[2]
  neutrophil mediated killing of 4T1 cells (tumor cell viability by luciferase activity): no significant effect on tumor-cell viability
[3]
  neutrophil cytotoxicity / neutrophil mediated killing of MDA-MB-231 cells: significantly increase neutrophil cytotoxicity

## CXCL1: CXC chemokine
[4]
  viability of 4T1 cells co-cultured with neutrophils purified from chemokine treated mice: did not induce a reduction in cell viability
[2]
  neutrophil mediated killing of 4T1 cells (tumor cell viability by luciferase activity): no significant effect on tumor-cell viability
[3]
  neutrophil cytotoxicity / neutrophil mediated killing of MDA-MB-231 cells: to a lesser extent CXCL1 significantly increase neutrophil cytotoxicity

## CXCL12: CXC chemokine
[2]
  neutrophil mediated killing of 4T1 cells (tumor cell viability by luciferase activity): no significant effect on tumor-cell viability
[3]
  neutrophil cytotoxicity / neutrophil mediated killing of MDA-MB-231 cells: significantly increase neutrophil cytotoxicity

## Catalase
[1]
  neutrophil (TEN) mediated tumour-cell killing in the presence of inhibitor: completely inhibits tumour-cell killing
[1]; listed as catalase
  neutrophil (TEN) mediated tumour-cell killing in the presence of inhibitor: completely inhibits cell killing

## Superoxide Dismutase
[1]
  neutrophil (TEN) mediated tumour-cell killing in the presence of inhibitor: does not
[1]; listed as superoxide dismutase
  neutrophil (TEN) mediated tumour-cell killing in the presence of inhibitor: did not inhibit cell death

## TGF-β
[1]
  TEN mediated in vitro killing of 4T1 cells in the presence of TGF-β: dramatic inhibitory effect
[1]; listed as TGF-Beta
  TEN mediated in vitro killing of 4T1 cells in the presence of TGF-β: dramatically inhibited TENs cytotoxicity towards tumour cells

## hCCL2: human CCL2 from R&D, used at 100 ng/ml
[3]
  neutrophil cytotoxicity / neutrophil mediated killing of MDA-MB-231 cells: induces neutrophil mediated cell killing; also recorded: induce the killing of human MDA-MB-231 in vitro

## hCCL5: human CCL5 from R&D, used at 100 ng/ml
[3]
  neutrophil cytotoxicity / neutrophil mediated killing of MDA-MB-231 cells: induces neutrophil mediated cell killing; also recorded: induce the killing of human MDA-MB-231 in vitro

## mCCL2: mouse CCL2 from R&D, used at 20 ng/ml
[2]
  neutrophil mediated killing of 4T1 cells (tumor cell viability by luciferase activity): induces neutrophil mediated cell killing; also recorded: induced tumour cell killing in vitro

B1: CXCL16: CXC chemokine (protein, UniProt Q9H2A7 30-254, looked up)
C-X-C motif chemokine 16: NEGSVTGSCYCGKRISSDSPPSVQFMNRLRKHLRAYHRCLYYTRFQLLSWSVCGGNKDPWVQELMSCLDLKECGHAYSGIVAHQKHLLPTSPPISQASEGASSDIHTPAQMLLSTLQSTQRPTLPVGSLSSDKELTRPNETTIHTAGHSLAAGPEAGENQKQPEKNAGPTARTSATVPVLCLLAIIFILTAALSYVLCKRRRGQSPQSSPDLPVHYIPVAPDSNT
[2]
  neutrophil mediated killing of 4T1 cells (tumor cell viability by luciferase activity): significant reduction in tumor cell viability
[3]
  neutrophil cytotoxicity / neutrophil mediated killing of MDA-MB-231 cells: significantly increase neutrophil cytotoxicity

B2: CCL4: CC chemokine (protein, UniProt P13236 24-92, looked up)
C-C motif chemokine 4: APMGSDPPTACCFSYTARKLPRNFVVDYYETSSLCSQPAVVFQTKRSKQVCADPSESWVQEYVYDLELN
[2]
  neutrophil mediated killing of 4T1 cells (tumor cell viability by luciferase activity): significant reduction in tumor cell viability
[3]
  neutrophil cytotoxicity / neutrophil mediated killing of MDA-MB-231 cells: but not CCL4 significantly increase neutrophil cytotoxicity
